Data as given in BigSolDB 2.1.

COC(=O)/C=C/c1ccc(O)c(OC)c1
solubility (mole fraction) (in ethyl acetate, 303.15 K): 0.217 | solubility (mole fraction) (in ethyl acetate, 307.15 K): 0.247 | solubility (mole fraction) (in ethyl acetate, 312.15 K): 0.279 | solubility (mole fraction) (in ethyl acetate, 317.15 K): 0.305 | solubility (mole fraction) (in ethyl acetate, 321.15 K): 0.334 | solubility (mole fraction) (in n-hexane, 303.15 K): 0.00112 | solubility (mole fraction) (in n-hexane, 307.15 K): 0.00211 | solubility (mole fraction) (in n-hexane, 312.15 K): 0.00251 | solubility (mole fraction) (in n-hexane, 317.15 K): 0.00354 | solubility (mole fraction) (in n-hexane, 321.15 K): 0.00416 | solubility (mole fraction) (in tert-amyl alcohol, 303.15 K): 0.215 | solubility (mole fraction) (in tert-amyl alcohol, 307.15 K): 0.246 | solubility (mole fraction) (in tert-amyl alcohol, 312.15 K): 0.287 | solubility (mole fraction) (in tert-amyl alcohol, 317.15 K): 0.312 | solubility (mole fraction) (in tert-amyl alcohol, 321.15 K): 0.342 | solubility (mole fraction) (in tert-butanol, 303.15 K): 0.182 | solubility (mole fraction) (in tert-butanol, 307.15 K): 0.209 | solubility (mole fraction) (in tert-butanol, 312.15 K): 0.247 | solubility (mole fraction) (in tert-butanol, 317.15 K): 0.295 | solubility (mole fraction) (in tert-butanol, 321.15 K): 0.325

COC(=O)/C=C/c1cc(OC)c(O)c(OC)c1
solubility (mole fraction) (in ethyl acetate, 303.15 K): 0.117 | solubility (mole fraction) (in ethyl acetate, 307.15 K): 0.128 | solubility (mole fraction) (in ethyl acetate, 312.15 K): 0.147 | solubility (mole fraction) (in ethyl acetate, 317.15 K): 0.157 | solubility (mole fraction) (in ethyl acetate, 321.15 K): 0.168 | solubility (mole fraction) (in n-hexane, 303.15 K): 0.000292 | solubility (mole fraction) (in n-hexane, 307.15 K): 0.000383 | solubility (mole fraction) (in n-hexane, 312.15 K): 0.000495 | solubility (mole fraction) (in n-hexane, 317.15 K): 0.000743 | solubility (mole fraction) (in n-hexane, 321.15 K): 0.000804 | solubility (mole fraction) (in tert-amyl alcohol, 303.15 K): 0.0264 | solubility (mole fraction) (in tert-amyl alcohol, 307.15 K): 0.0336 | solubility (mole fraction) (in tert-amyl alcohol, 312.15 K): 0.0644 | solubility (mole fraction) (in tert-amyl alcohol, 317.15 K): 0.0926 | solubility (mole fraction) (in tert-amyl alcohol, 321.15 K): 0.14 | solubility (mole fraction) (in tert-butanol, 303.15 K): 0.0184 | solubility (mole fraction) (in tert-butanol, 307.15 K): 0.0234 | solubility (mole fraction) (in tert-butanol, 312.15 K): 0.0523 | solubility (mole fraction) (in tert-butanol, 317.15 K): 0.0743 | solubility (mole fraction) (in tert-butanol, 321.15 K): 0.0973

COC(=O)/C=C/c1ccc(O)cc1
solubility (mole fraction) (in ethyl acetate, 303.15 K): 0.0856 | solubility (mole fraction) (in ethyl acetate, 307.15 K): 0.0915 | solubility (mole fraction) (in ethyl acetate, 312.15 K): 0.0997 | solubility (mole fraction) (in ethyl acetate, 317.15 K): 0.108 | solubility (mole fraction) (in ethyl acetate, 321.15 K): 0.113 | solubility (mole fraction) (in n-hexane, 303.15 K): 2.81e-05 | solubility (mole fraction) (in n-hexane, 307.15 K): 4.38e-05 | solubility (mole fraction) (in n-hexane, 312.15 K): 6.18e-05 | solubility (mole fraction) (in n-hexane, 317.15 K): 8.13e-05 | solubility (mole fraction) (in n-hexane, 321.15 K): 0.000124 | solubility (mole fraction) (in tert-amyl alcohol, 303.15 K): 0.116 | solubility (mole fraction) (in tert-amyl alcohol, 307.15 K): 0.126 | solubility (mole fraction) (in tert-amyl alcohol, 312.15 K): 0.154 | solubility (mole fraction) (in tert-amyl alcohol, 317.15 K): 0.174 | solubility (mole fraction) (in tert-amyl alcohol, 321.15 K): 0.201 | solubility (mole fraction) (in tert-butanol, 303.15 K): 0.0977 | solubility (mole fraction) (in tert-butanol, 307.15 K): 0.113 | solubility (mole fraction) (in tert-butanol, 312.15 K): 0.128 | solubility (mole fraction) (in tert-butanol, 317.15 K): 0.143 | solubility (mole fraction) (in tert-butanol, 321.15 K): 0.171
